Reference: patent US7412279B2, “Systems and methods for targeted magnetic resonance imaging of the vascular system” (Epix Pharmaceuticals, Inc., priority 2001, dated 2008)

Experiments:
thrombus [1] = test: In vivo MRI of a jugular vein thrombus in the guinea pig, extracellular vascular agent followed by targeted agent; parameters: species or system guinea pig (Hartley male); conditions: vascular MR image
Description: A 600 g guinea pig (Hartley male) was anaesthetized with a cocktail of Ketamine (50 mg/kg), Aceapromazine (2.5 mg/kg), and Rompon (5 mg/kg), and anesthesia maintained with sodium pentobarbital (approx.35 mg/kg as needed). An incision was made in the throat and one of the jugular veins was isolated. A 1 cm section of the jugular vein was isolated with vascular clamps. Freshly drawn blood from the animal (50 μL) was mixed with human thrombin (50 uL, 4 units) and injected into the clamped segment of the vein. Four minutes after injection, the clamps were removed and the thrombus was allowed to age for 30 minutes.
The animal was placed inside a General Electric Signa LxCVi 1.5 tesla scanner and imaged using a 3D RF spoiled gradient echo sequence (SPGR) with the following parameters TR=22 ms, TE=3.1 ms, flip angle=40 degree, field of view=8 cm, acquisition bandwith=31.25 kHz. After one scan, an extracellular vascular MRI contrast agent, GdDTPA (Magnevist®), 100 μmol/kg, was injected via a catheter in the carotid artery. The image sequence was repeated 5 times over the next 30 minutes to acquire the vascular MRI data set. […]

thrombus [2] = test: In vivo protocol: vascular agent followed by targeted agent, guinea pig jugular vein thrombus; parameters: species or system guinea pig (Hartley male); conditions: Example 1, 100 μmol/kg
Description: One procedure for in vivo imaging of a stationary target within the vascular system (e.g., a thrombus) with a vascular agent (e.g., an extracellular contrast agent or a blood pool agent), and a targeted contrast agent is as follows: A 600 g guinea pig (Hartley male) is anaesthetized. An incision is made in the throat and one of the jugular veins is isolated. A 1 cm section of the jugular vein is isolated with vascular clamps. Freshly drawn blood from the animal (50 μL) is mixed with human thrombin (50 μL, 4 units) and injected into the clamped segment of the vein. Four minutes after injection, the clamps are removed and the thrombus is allowed to age for 30 minutes. GdDTPA (Magnevist®), 100 μmol/kg, an extracellular contrast agent, is injected and the throat area of the guinea pig is imaged using the following pulse sequence on a GE Medical Systems 1.5T MRI: Tl-weighted SPGR, TE=3.1, TR=22, flip angle=40°. […] After 30 minutes, GdDTPA has cleared from the blood and a stationary target (thrombus) targeted MRI agent is injected at a dose of 6 μmol/kg. […]

thrombus [3] = test: In vivo MRI of thrombi in the rabbit carotid artery (crush injury) and jugular vein; parameters: species or system New Zealand White rabbit
Description: A 2.5 kg female New Zealand White rabbit was anesthetized with a cocktail of Ketamine (50 mg/kg), Aceapromazine (2.5 mg/kg), and Rompon (5 mg/kg), and anesthesia maintained with sodium pentobarbital (approx.35 mg/kg as needed). An i.v. catheter (24 g) was placed into the ear vein and the ear artery. The jugular vein and carotid artery were isolated. A stenosis was created in the carotid artery by placing an 18 g needle on top of the vessel and then suturing it into place with 3-0 suture. The needle was then removed. A 5 mm portion of the artery was then segmented off distally to the stenosis with microvascular clips. The artery was crushed twice along the 5 mm section. The proximal vascular clip was released to allow blood flow into the section for circa 3 sec. The clip was reapplied and the artery was crushed twice again along the 5 mm section. After 4 minutes, the clips were removed. A 5 mm segment of the jugular vein was isolated with microvascular clips. A thrombus was created by injecting 100 μL of a 3.7 units thrombin, 0.06 M CaCl2, rabbit whole blood mixture. After 4 minutes, the clips were removed.
The thrombi were allowed to age for 50 minutes. A 1.0 mL solution of a 5 mM targeted contrast agent (Structure III, 2 μmol/kg) was administered via the ear vein. […]

Compound | enhancement of the vascular system (thrombus [1]; Example 10, 100 μmol/kg via carotid artery catheter) | enhancement of the thrombus (thrombus [1]; Example 10, 100 μmol/kg) | enhancement of the thrombus (thrombus [2]) | enhancement of the vasculature (thrombus [2]; immediately after injection) | visibility of blood vessels (carotid arteries, jugular veins) in MIP (thrombus [3]; Example 6, 80 μmol Gd/kg, image acquired immediately after injection) | signal intensity of both the blood and thrombus (thrombus [3]; Example 9, 80 μmol Gd/kg, injected 80 minutes after the targeted agent)
O=C([O-])CN(CCN(CC(=O)[O-])CC(=O)O)CCN(CC(=O)[O-])CC(=O)O.[Gd+3] [GdDTPA] | 4 fold | no observable enhancement | no enhancement | some enhancement | – | –
Gd-DTPA-BSA | – | – | – | – | readily visible | increased dramatically
